The record followed here is article PMC5829251, “NAD^+ analog reveals PARP-1 substrate-blocking mechanism and allosteric communication from catalytic center to DNA-binding domains” (Nature Communications, 2018).

One assay deals with T1, Tankyrase 1 CAT (Homo sapiens, UniProt O95271).
T1 construct: Tankyrase 1 CAT (residues 1093–1327) was cloned in pET24; made in house
T1 sequence (O95271 1093-1327): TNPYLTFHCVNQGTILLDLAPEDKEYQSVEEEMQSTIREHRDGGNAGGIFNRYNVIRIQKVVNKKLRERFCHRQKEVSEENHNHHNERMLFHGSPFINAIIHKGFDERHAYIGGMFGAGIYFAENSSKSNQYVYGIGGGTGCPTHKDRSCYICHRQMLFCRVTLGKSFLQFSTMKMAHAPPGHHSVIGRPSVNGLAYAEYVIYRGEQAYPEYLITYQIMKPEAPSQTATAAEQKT
Description: DSF, Tankyrase 1 CAT. Type of assay: binding. As to the method: (§1) DSF experiments were performed as described, [13] using 5 µM protein, 2.5 µM DNA when indicated and various concentrations of compound (BAD, carba-NAD^+, benzamide, and ADP-ribose) as indicated in Fig. 1 and Fig. 3. Experiments were performed on a Roche LightCycler 480 RT-PCR. Reactions including DNA were performed with a 26- or 28-base pair (bp) unphosphorylated oligonucleotide for PARP-1, a 28-bp 5´-phosphorylated (5´P) oligonucleotide for PARP-2, and a 47-bp oligonucleotide including a central 5´P nick for PARP-3^13 in the following buffer: 25 mM Hepes pH 8.0, 150 mM NaCl, 1 mM EDTA, and 0.1 mM TCEP. Reactions with PARP-3 were conducted at lower ionic strength to allow binding to DNA as described (25 mM Hepes pH 8.0, 50 mM NaCl, 1 mM EDTA and 0.1 mM TCEP)[13]. ΔTM values were calculated by subtracting the TM determined for the protein in the absence of compound from the TM determined in the presence of compound. Experiments were performed in triplicate and a Boltzmann sigmoid was fit to the data to determine the TM values (KaleidaGraph).
(In general: In DSF a fluorescence change marks the thermal transition of the protein.)

The target of a further assay is T2, PARP-2 (Homo sapiens, UniProt Q9UGN5).
T2 construct: PARP-2 (isoform 2, residues 1–570) was cloned in pET28 vector; made in house
T2 sequence (Q9UGN5 1-570 isoform Q9UGN5-2): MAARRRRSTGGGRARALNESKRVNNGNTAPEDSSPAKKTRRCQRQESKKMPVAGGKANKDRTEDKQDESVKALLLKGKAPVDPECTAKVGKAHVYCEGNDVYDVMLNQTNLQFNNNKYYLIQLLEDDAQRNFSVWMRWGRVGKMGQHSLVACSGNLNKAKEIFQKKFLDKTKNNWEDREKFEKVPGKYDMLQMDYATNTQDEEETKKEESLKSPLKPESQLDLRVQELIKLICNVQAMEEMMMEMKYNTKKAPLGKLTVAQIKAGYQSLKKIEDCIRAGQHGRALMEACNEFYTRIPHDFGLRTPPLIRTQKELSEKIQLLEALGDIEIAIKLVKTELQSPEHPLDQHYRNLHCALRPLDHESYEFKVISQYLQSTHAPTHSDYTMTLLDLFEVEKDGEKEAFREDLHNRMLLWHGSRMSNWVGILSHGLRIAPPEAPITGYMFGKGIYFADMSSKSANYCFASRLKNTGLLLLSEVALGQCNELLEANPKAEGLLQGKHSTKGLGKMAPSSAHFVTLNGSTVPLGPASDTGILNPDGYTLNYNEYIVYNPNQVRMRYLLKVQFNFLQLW
Description: DSF, full-length PARP-2 with or without DNA. As to conditions: for TM: Figure 3c, BAD 1250 μM, in °C (unit assumed). The class given is binding. The method, then:
as §1

A further assay deals with T3, PARP-1 (Homo sapiens, UniProt P09874).
T3 construct: Full-length PARP-1 WT (residues 1–1014) was cloned in pET28 vector; made in house; host or cells: E. coli
T3 sequence (P09874 whole entry, the tested form may be a part): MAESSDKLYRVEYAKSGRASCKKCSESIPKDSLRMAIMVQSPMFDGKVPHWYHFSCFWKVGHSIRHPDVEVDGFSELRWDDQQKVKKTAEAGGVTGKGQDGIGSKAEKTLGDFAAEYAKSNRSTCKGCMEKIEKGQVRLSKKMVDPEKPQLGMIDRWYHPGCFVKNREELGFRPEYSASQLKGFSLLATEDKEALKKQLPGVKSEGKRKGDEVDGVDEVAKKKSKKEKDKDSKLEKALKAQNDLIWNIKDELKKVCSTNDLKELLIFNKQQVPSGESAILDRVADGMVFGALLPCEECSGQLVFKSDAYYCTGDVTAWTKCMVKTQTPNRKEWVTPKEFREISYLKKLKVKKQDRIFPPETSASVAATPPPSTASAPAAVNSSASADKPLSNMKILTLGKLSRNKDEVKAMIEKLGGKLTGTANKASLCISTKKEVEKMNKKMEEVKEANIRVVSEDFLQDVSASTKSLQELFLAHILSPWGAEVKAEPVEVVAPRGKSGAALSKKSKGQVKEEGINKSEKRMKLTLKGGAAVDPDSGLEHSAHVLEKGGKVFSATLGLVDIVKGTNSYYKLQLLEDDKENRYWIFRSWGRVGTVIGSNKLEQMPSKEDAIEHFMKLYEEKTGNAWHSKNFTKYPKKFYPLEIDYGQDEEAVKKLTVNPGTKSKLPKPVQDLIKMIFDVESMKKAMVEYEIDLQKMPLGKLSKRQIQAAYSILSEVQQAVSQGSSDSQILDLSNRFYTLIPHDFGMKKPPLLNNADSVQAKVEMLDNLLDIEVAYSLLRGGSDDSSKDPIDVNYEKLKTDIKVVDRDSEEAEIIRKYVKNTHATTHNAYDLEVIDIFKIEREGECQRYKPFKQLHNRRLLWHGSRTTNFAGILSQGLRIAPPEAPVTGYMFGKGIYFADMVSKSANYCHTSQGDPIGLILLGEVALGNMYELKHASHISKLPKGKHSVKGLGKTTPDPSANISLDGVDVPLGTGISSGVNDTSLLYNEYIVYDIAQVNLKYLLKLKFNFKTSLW
Nature of the assay: SDS-PAGE PARP-1 activity assay (DNA-dependent automodification). The class given is biochemical. Conditions: 1 μM DNA, 1 μM protein, 50 μM NAD+; concentration series. As to the method:
The SDS-PAGE activity assay was performed as described[28] using 1 µM protein, 1 μM DNA (18 bp oligonucleotide), 50 µM NAD^+, and various concentrations of BAD and carba-NAD^+ as indicated. Reactions were incubated for 5 min before quenching with SDS-PAGE loading buffer.

The next assay concerns the target T4, PARP-1 K633A (Homo sapiens, UniProt P09874, K633A).
T4 construct: Full-length PARP-1 WT (residues 1–1014) was cloned in pET28 vector and site-directed mutagenesis was performed; made in house; host or cells: E. coli
Description: DSF, full-length PARP-1 K633A with or without DNA. Type of assay: binding. As to conditions: for TM: Figure 3b, BAD 1250 μM, in °C (unit assumed). The method, then: as §1

The next assay deals with T5, full-length PARP-1 WT (Homo sapiens, UniProt P09874).
T5 construct: Full-length PARP-1 WT (residues 1–1014) was cloned in pET28 vector; made in house; host or cells: E. coli
T5 sequence (P09874 whole entry, the tested form may be a part): as above
Description: One-dimensional 1H NMR monitoring BAD protons. The class given is binding. The method, then: Full-length PARP-1 WT and a dumbbell DNA containing a central 1-nucleotide gap (5′-[…]-3′)[7], were dialyzed against a modified PBS buffer (222 mM NaCl, 2.7 mM KCl, 200 μM DTT, 10 mM sodium phosphate, pH 7.4). An aliquot of the dialysis PBS buffer was then lyophylized and resuspended in deuterated water (D2O). The NMR samples were prepared by diluting the protein (40 μM final), DNA (40 μM final), and BAD (20 μM final) in the deuterated buffer such that all samples contained 85% D2O final. The samples were incubated 30 min at RT prior to collecting the NMR spectra. ^1H (700.303 MHz) NMR spectra were acquired with a Bruker Avance II 700 spectrometer equipped with a 16.4 T narrowbore magnet and a double-resonance (^1 H/^13 C) cryoprobe. All samples were run using 3 mm NMR tubes (180 µL). 1D experiments were acquired with excitation sculpting to suppress residual water signal. The use of D2O as the primary solvent (85%) removed the signals from amide hydrogens in the region of interest (7–9 ppm), however a low-power T1p filter (70 ms) was necessary after the 90-degree excitation pulse to reduce signals from the non-exchangeable hydrogens arising from the large, slowly tumbling protein and DNA.

In a further assay the test system is PARP-1 ΔHD. Nature of the assay: Fluorescence polarization DNA competition assay, PARP-1 ΔHD. Type of assay: binding, human. As to conditions: 40 nM PARP-1 ΔHD, 20 nM labeled DNA, BAD 500 μM. As to the method: For the DNA competition assay, 40 nM PARP-1 WT, or PARP-1 ΔHD, was incubated with 20 nM of dumbbell DNA with a central nick carrying an internal fluorescent FAM group (5′-GCT GAG C/FAMT/T CTGGTGAAGCTCAGCTCGCGGCAGCTGGTGCTGCCGCGA-3′) for 30 min at RT in 12 mM Hepes pH 8.0, 60 mM KCl, 8 mM MgCl2, 4% glycerol, 5.7 mM beta-mercaptoethanol, 0.05 mg per ml bovine serm albumin with or without BAD or benzamide (500 μM). A competitor unlabeled DNA of the same sequence was added at 100 nM and FP was measured over time on a VictorV plate reader (Perkin Elmer). For the DNA affinity measurement assay, increasing concentrations of PARP-1 WT were incubated for 30 min at RT with 5 nM of dumbbell DNA probe carrying a nick (described above) in the absence or presence of BAD or benzamide (100 μM) in the following buffer: 12 mM Hepes pH 8.0, 250 mM NaCl, 4% glycerol, 5.7 mM beta-mercaptoethanol, 0.05 mg per ml bovine serum albumin.

Assay [1] addresses T6, PARP-1 double mutant D766/D770A (Homo sapiens, UniProt P09874, D766A/D770A).
T6 construct: Full-length PARP-1 WT (residues 1–1014) was cloned in pET28 vector and site-directed mutagenesis was performed; made in house; host or cells: E. coli
Description: DSF, full-length PARP-1 D766/D770A. The class given is binding. As to conditions: BAD 1250 μM. The method, then: as §1

Another assay addresses T7, PARP-1 D45A (Homo sapiens, UniProt P09874, D45A).
T7 construct: Full-length PARP-1 WT (residues 1–1014) was cloned in pET28 vector and site-directed mutagenesis was performed; made in house; host or cells: E. coli
Nature of the assay: DSF, full-length PARP-1 D45A with or without DNA. The class given is binding. Conditions: for TM: Figure 3b, BAD 1250 μM, in °C (unit assumed). As to the method: as §1

T4 sequence (P09874 whole entry K633A, the tested form may be a part): as the sequence (P09874 whole entry, the tested form may be a part) above, with K633A counted along it
T7 sequence (P09874 whole entry D45A, the tested form may be a part): as the sequence (P09874 whole entry, the tested form may be a part) above, with D45A counted along it
T6 sequence (P09874 whole entry D766A/D770A, the tested form may be a part): as the sequence (P09874 whole entry, the tested form may be a part) above, with D766A, D770A counted along it

In the case of `NC(=O)c1cccc(C2OC(COP(=O)(O)OP(=O)(O)OCC3OC(n4cnc5c(N)ncnc54)C(O)C3O)C(O)C2O)c1` (centres unmarked) [BAD, benzamide adenine dinucleotide], the “binding to BAD based on the DSF analysis” value at Tankyrase 1 CAT (CAT of tankyrase 1 (no HD)) was “capable of binding”. The TM at Tankyrase 1 CAT (Figure 3d, TNK CAT 5 μM, BAD 4 mM, TM without BAD 53.71, in °C (unit assumed)) turned out to be 57.42; on PARP-2 (PARP-2, no DNA, TM without BAD 47.71), 47.47; at PARP-2 (PARP-2 with DNA (2.5 μM, 28-bp duplex 5'P), TM without BAD 45.44), 47.28; at PARP-1 K633A (K633A with DNA (2.5 μM), TM without BAD 44.76), 44.86; at PARP-1 K633A (K633A, no DNA, TM without BAD 45.50), 45.32; in assay [1] (Figure 3a, no DNA, TM without BAD 45.94), 48.5 °C. The TM at PARP-1 D45A (D45A with DNA (2.5 μM), TM without BAD 46.77) was determined as 46.61; on PARP-1 D45A (D45A, no DNA, TM without BAD 46.20), 46.68. The “evidence of BAD binding in the DSF assay” value at PARP-2 (PARP-2, with or without DNA bearing 5'P) is “only showed evidence of BAD binding in the presence of activating DNA”. The “concentration at which inhibition of DNA-dependent PARP-1 automodification activity starts” value on PARP-1 worked out at 50 µM. The “TM shift in the presence of BAD and DNA” value at PARP-1 K633A (K633A (Zn3–WGR–HD interface mutation), relative to WT) is listed as “substantial reduction in TM shift”; on PARP-1 D45A (D45A (Zn1–WGR interface mutation), relative to WT), “substantial reduction in TM shift”. Also, the “level of signal reduction of BAD spectrum peaks” value on full-length PARP-1 WT (BAD 20 μM with PARP-1 40 μM and DNA 40 μM (dumbbell DNA, central 1 nt-gap)) is reported as ~ 95%. Besides, the “BAD spectrum compared with BAD alone” value at full-length PARP-1 WT (BAD 20 μM with PARP-1 40 µM, no DNA) was “essentially identical spectrum”. For the same compound, the “release of full-length PARP-1 ΔHD from the labeled DNA” value with PARP-1 ΔHD was “did not prevent the rapid release”. In addition, the “TM change in the presence of BAD” value in assay [1] (did not require the presence of DNA) is reported as “increase in TM”.
